Experiments:
active TGF-β1 signaling = assay: inhibition of active TGF-β1 signaling in MLEC luciferase reporter cells; type: cell-based, mink
Description: In these experiments, SB505124 and galunisertib (Fisher, Inc.) inhibitors were added at 1-2 uM concentrations to MLEC plated in 96-well plates using a 1 hour pre-incubation before addition of human active TGF-β1 in […] concentrations with continued presence of the inhibitor for 18 hours overnight in standard conditions as described in Example 2 methods. A neutraceutical, the green tea catechin ECGC (Sigma) was also tested. Luciferase signals were determined after cell lysis and compared as in Example 2.

[1] = test system: TGF-β1 signaling caused by NSP15 activation of human latent TGF-β1; type: cell-based, mink; conditions: 1 hour pre-incubation; 2 μg/ml of antibody or 1-2 μM small molecule; 0-2.4 nM NSP15 plus 2 nM latent human TGF-β1; MLEC; FIG. 8
human latent TGF-β1 = molecular target: T1, human latent TGF-β1 (Homo sapiens, UniProt P01137); type: cell-based; conditions: peptide incubated 45 minutes at 37° C. with 2 nM human latent TGF-β1, then 18 hours on MLEC; FIG. 5
T1 construct: purchased Acrobio, Inc
T1 sequence (P01137 30-278 limits assumed): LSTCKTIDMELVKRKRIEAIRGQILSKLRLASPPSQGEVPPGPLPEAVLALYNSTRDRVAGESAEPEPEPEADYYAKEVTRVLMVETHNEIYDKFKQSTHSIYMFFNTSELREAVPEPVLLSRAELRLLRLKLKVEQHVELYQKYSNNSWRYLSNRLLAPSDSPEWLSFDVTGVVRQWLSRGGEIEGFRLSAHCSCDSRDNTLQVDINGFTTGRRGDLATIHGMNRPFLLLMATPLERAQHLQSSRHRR

Compound	block of NSP15 mediated effects on TGF-β1 signaling [1]	activation of latent TGF-β1 (luciferase signal, RLU) (human latent TGF-β1)	also measured
O=C(O[C@@H]1Cc2c(O)cc(O)cc2O[C@@H]1c1cc(O)c(O)c(O)c1)c1cc(O)c(O)c(O)c1 [ECGC]			inhibition of active TGF-β1 signaling at higher concentrations (active TGF-β1 signaling; 80 uM, subsequent experiments, not shown): 80%; effectiveness at blocking active TGF-β1 signaling (active TGF-β1 signaling; 1-2 μM concentrations, MLEC, FIG. 7): not effective
Cc1cccc(-c2[nH]c(C(C)(C)C)nc2-c2ccc3c(c2)OCO3)n1 [SB505124]	block NSP15 mediated effects on TGF-β1 signaling		
Cc1cccc(-c2nn3c(c2-c2ccnc4ccc(C(N)=O)cc24)CCC3)n1 [galunisertib]	block NSP15 mediated effects on TGF-β1 signaling		
DKRFKQDGGWSHWSPW [TSP1]		not a significant activator of latent TGF-β1	
KFILALRKLLFESEGP [SCR]		not	
LLIGLAKRFKESPFEL [NSP15 KRFK-region peptide, 16 amino acid synthetic peptide centered on the SARS-CoV2 NSP15 KRFK region]		activates latent TGF-β1	

Reference: patent US20240218059A1, “TGF-Beta 1 INHIBITORS FOR PREVENTING AND TREATING SARS-COV-2” (The Regents of the University of Colorado, A Body Corporate, priority 2020, published 2024)
